Results reported in publication PMC10905675, “INX-315, a Selective CDK2 Inhibitor, Induces Cell Cycle Arrest and Senescence in Solid Tumors” (Cancer Discovery, 2023).
Like-named read-outs stand apart in the source and are kept apart here.

Legend:
[1] = Microsomal stability assay; format: in vitro ADME
Protocol: Microsomal stability was determined by Absorption Systems (Exton, PA). INX-315 was tested in mixed-gender human liver microsomes (Lot #1010420), male Sprague-Dawley rat liver microsomes (Lot #1910100), male CD-1 mouse liver microsomes (Lot #2010017), and male beagle dog liver microsomes (Lot #2010046) were purchased from XenoTech/BioIVT by Absorption Systems. The reaction mixture, minus NADPH, was prepared as described below. The test article was added into the reaction mixture at a final concentration of 1 µmol/L. The control compound, testosterone, was run simultaneously with the test article in a separate reaction. The reaction mixture (without cofactor) was equilibrated in a shaking water bath at 37°C for 5 minutes. The reaction was initiated by the addition of the cofactor, and the mixture was incubated in a shaking water bath at 37°C. Aliquots (100 µL) were withdrawn at 0, 10, 20, 30, and 60 minutes. Test article and testosterone samples were immediately combined with 400 µL of ice-cold 50/50 acetonitrile (ACN)/H2O containing 0.1% formic acid and internal standard to terminate the reaction. The samples were then mixed and centrifuged to precipitate proteins. All samples were assayed by LC-MS/MS using electrospray ionization. The peak area response ratio (PARR) of analyte to internal standard at each time point was compared to the PARR at time 0 to determine the percent remaining at each time point. Half-lives and clearance were calculated using GraphPad software (RRID:SCR_002798), fitting to a single-phase exponential decay equation.

CDK4/cyclin D1 = target: T1, CDK4/cyclin D1 (Homo sapiens, UniProt P11802); assay: Nanosyn biochemical assay; conditions: ATP at Km, value (SEM), read-out: IC50 (nmol/L) CDK4/cyclin D1
T1 construct: purchased ThermoFisher PV4400
Protocol: (§1) Compounds were tested in kinase assays (Nanosyn, Inc.). The assays were completed using microfluidic kinase detection technology (Caliper Assay Platform). The compounds were tested in 12-point dose–response format in singlicate at the Km for ATP. Phosphoacceptor substrate peptide concentration used was 1 µmol/L and staurosporine was used as the reference compound for all assays. Details for individual Nanosyn assays performed are provided here: […]

CDK5/p25 = target: T2, CDK5/p25 (Homo sapiens, UniProt Q00535); assay: Nanosyn biochemical assay; conditions: ATP at Km, value (SEM), read-out: IC50 (nmol/L) CDK5/p25
T2 construct: purchased BPS 40105
Protocol: as §1

CDK7 = target: T3, CDK7 (Homo sapiens, UniProt P50613); assay: Nanosyn biochemical assay; conditions: ATP at Km, value (SEM), read-out: IC50 (nmol/L) CDK7
T3 construct: purchased Carna 04-108
Protocol: as §1

CDK3/cyclin E1 = target: T4, CDK3/cyclin E1 (Homo sapiens, UniProt Q00526); assay: Nanosyn biochemical assay; conditions: ATP at Km, value (SEM), read-out: IC50 (nmol/L) CDK3/cyclin E1
T4 construct: purchased BPS 40103
Protocol: as §1

CDK9/cyclin T1 [2] = target: T5, CDK9/cyclin T1 (Homo sapiens, UniProt P50750); assay: Nanosyn biochemical assay; conditions: value (SEM)
T5 construct: purchased Carna 04-110
Protocol: as §1

CDK6/cyclin D3 = target: T6, CDK6/cyclin D3 (Homo sapiens, UniProt Q00534); assay: Nanosyn biochemical assay; conditions: value (SEM)
T6 construct: purchased Carna 04-107
Protocol: as §1

CDK1/cyclin B1 [3] = target: T7, CDK1/cyclin B1 (Homo sapiens, UniProt P06493); assay: Nanosyn biochemical assay; conditions: value (SEM)
T7 construct: purchased Millipore 14-450M
Protocol: as §1

CDK2/cyclin A2 = target: T8, CDK2/cyclin A2 (Homo sapiens, UniProt P24941); assay: Nanosyn biochemical assay; conditions: ATP at Km, value (SEM), read-out: IC50 (nmol/L) CDK2/cyclin A2
T8 construct: purchased Millipore 14-448
Protocol: as §1

CDK5 = target: T9, CDK5 (Homo sapiens, UniProt Q00535); assay: Nanosyn biochemical assay; conditions: ATP at Km, value (SEM), read-out: IC50 (nmol/L) CDK5
T9 construct: purchased ThermoFisher PV3000
Protocol: as §1

CDK2/cyclin E1 = target: T10, CDK2/cyclin E1 (Homo sapiens, UniProt P24941); assay: Nanosyn biochemical assay; conditions: Nanosyn, ATP at Km; value (SEM); read-out: IC50 (nmol/L) CDK2/cyclin E1
T10 construct: purchased Millipore 14-475
Protocol: as §1

[4] = system: palbociclib-resistant MCF7 cells; assay: CellTiter Glo viability assay; format: cell-based; conditions: Homo sapiens, MCF7, Supp Fig S9B, CDK4/6 inhibitor monotherapy; read-out: IC50
Protocol: (§2) An exception to this is MCF7PDRCl5-1 cells which were first cultured for 5 days without palbociclib then plated as described. MCF7PDRCl5-1 cells were treated with either a dose curve of the indicated CDK4/6i or a dose curve of INX-315 + 1 µmol/L of the indicated CDK4/6i. Cell viability was determined using the CellTiter-Glo assay (Promega, G9241) following manufacturer's instructions. Plates were processed on either BioTek Synergy2 multi-mode (Agilent) or ClarioSTAR (BMG Labtech) plate readers. T47D and MCF7 cells were seeded into […] plates using BioTek 406 (Aglient) and treated with a ten-point dose concentration from 10 µmol/L to 0.3 nmol/L of INX-315 for 2× doubling times. Plates were fixed with 4% PFA and stained with Rhodamine-Phalloidin (Bio-Trend, 00027) and DAPI (5 mg/mL, Invitrogen, catalog no. D1306). Plates were imaged using CellInsight CX7 LZR and DAPI-positive cells were counted using Thermo Fisher Scientific HCS Studio Cell Analysis Software.

MCF7 Parent = assay: Cell number dose-response; format: cell-based; conditions: Supp Fig S7D, 7 days, read-out: IC50 (nM) MCF7
Source text: (§3) MCF7 abemaciclib-resistant cells were generated by continuous treatment with abemaciclib at a concentration of 250 nmol/L for 72 days, followed by 500 nmol/L for 48 days. MCF7 fulvestrant-resistant cells were generated by continuous treatment of 100 nmol/L Fulvestrant for 125 days. MCF7 abemaciclib/fulvestrant-resistant cells were generated by treating abemaciclib-resistant cells continuously with 100 nmol/L fulvestrant for 137 days. T47D abemaciclib-resistant lines were generated by continuous treatment with abemaciclib at a concentration of 500 nmol/L for 73 days. T47D fulvestrant–resistant cells were generated by continuous treatment with 100 nmol/L fulvestrant for 68 days. T47D abemaciclib/fulvestrant-resistant cells were generated by treating abemaciclib-resistant cells with continuous treatment of 100 nmol/L Fulvestrant for 60 days. Resistant cell lines were cultured in medium containing drug(s) that the line is resistant to and further authenticated using short tandem repeat profiling.
as §2

MCF7 Abema-resistant = assay: Cell number dose-response; format: cell-based; conditions: Supp Fig S7D, Abema-Resistant in 500 nM abemaciclib, 7 days; read-out: IC50 (nM) MCF7
Source text: as §3, §2

MCF7 Fulv-resistant = assay: Cell number dose-response; format: cell-based; conditions: Supp Fig S7D, Fulv-Resistant in 100 nM fulvestrant, 7 days; read-out: IC50 (nM) MCF7
Source text: as §3, §2

[5] = system: all CCNE1-amplified lines; assay: CellTiter Glo viability assay; format: cell-based; conditions: all CCNE1-amplified lines, INX-315 vs PF-07104091, 6 days
Protocol: as §2

CDK9/cyclin T1 [6] = target: T5, CDK9/cyclin T1; assay: NanoBRET live cell target engagement; format: binding; conditions: Supp Fig S1E, NanoBRET; read-out: Intracellular IC50 (nM) CDK9/T1
Protocol: (§4) Reaction Bio (Malvern, PA) conducted NanoBRET assays utilizing Promega NanoLuc technology with two replicates per experiment. The CDK2/E1 and CDK1/B1 values are the average of two separate experiments.
(§5) HEK293 cells were transfected using Opti-MEM without serum containing ratios of 9.0 µg/mL of Transfection Carrier DNA, 1.0 µg/mL of NanoLuc fusion vector DNA and 1 mL of Opti-MEM without phenol red. 30 µL of FuGENE HD transfection reagent was added to each milliliter of DNA mixture to form lipid:DNA complex. After incubation for 20 minutes at room temperature, 1 part lipid/DNA complex was added to 20 parts HEK293 cells in suspension. Cells were then plated and incubated overnight before being trypsinized and resuspended at 2 × 10^5 cells/mL. NanoBRET tracer reagent was added to cells at a ratio of 1 part tracer to 20 parts cell suspension. Cells were added to a 384-well plate and incubated for 1 hour. Plates were removed and incubated at room temperature for 15 minutes to equilibrate before 3x complete substrate plus inhibitor was added. After 2–3 minutes of incubation at room temperature, donor and acceptor wavelengths (460 nm and 600 nm, respectively) were measured using an Envision 2104 plate reader.

CDK1/cyclin B1 [7] = target: T7, CDK1/cyclin B1; assay: NanoBRET live cell target engagement; format: binding; conditions: Supp Fig S1E, NanoBRET; read-out: Intracellular IC50 (nM) CDK1/B1
Protocol: as §4, §5

ST4316B PDX = assay: PDX tumor growth; format: in vivo, mice; conditions: monotherapy; ribociclib 50 mg/kg per day
Protocol: PDX models were performed by Crown Biosciences (OV5398, GA0103, and GA0114) or XenoSTART (ST4316B). Tumor fragments from stock mice were harvested and implanted subcutaneously into the flank of NOD/SCID mice (OV5398, RRID:IMSR_JAX:001303), BALB/c nude mice (GA0103 and GA0114, RRID:IMSR_RJ:BALB-C-NUDE), or athymic nude mice (Crl:NU(NCr)-Foxn1nu, RRID:IMSR_CRL:490) (ST4316B). For CDX models, female athymic nude mice (Crl:NU(NCr)-Foxn1nu, RRID:IMSR_CRL:490) were inoculated with 1 × 10^7 50% Cultrex OVCAR3 cells in the flank. Experiments performed using MMTV-rtTA/tetO-HER2 mice were performed at the Peter MacCallum Cancer Centre. Tumor formation was induced and sustained in female mice with doxycycline as previously described ([33]). Randomization and treatment in all models began when median tumor volume reached a maximum of 300 mm^3.
Mice were treated via oral gavage. INX-315 was prepared weekly in 100% PEG400; abemaciclib was prepared as previously described ([33]) and ribociclib (Selleckchem, S7440) was prepared weekly in 0.5% methyl cellulose. To generate abemaciclib-resistant MMTV-rtTA/tetO-HER2 tumors, mice were treated continuously with abemaciclib at a dose of 75 mg/kg until tumors resumed growth as described in text. At this point and in all other MMTV-rtTA/tetO-HER2 mice experiments, mice were randomized into treatment groups and abemaciclib was administered to indicated groups at a dose of 50 mg/kg. In all MMTV-rtTA/tetO-HER2 mice experiments, INX-315 was administered at a dose of 50 mg/kg twice daily. For PDX model ST4316B, ribociclib was administered at 50 mg/kg per day.

[8] = both sexes, human, liver microsomes, 1 µmol/L, 60 min incubation, read-out: Half-life
[9] = male, CD-1, liver microsomes, Mouse microsomes, 60 min incubation
[10] = male, Sprague-Dawley, rat, liver microsomes, 1 µmol/L, 60 min incubation, read-out: Half-life
[11] = male, beagle, dog, liver microsomes, 1 µmol/L, 60 min incubation, read-out: Half-life
[12] = ATP at Km, read-out: IC50 (nmol/L) CDK6/cyclin D3
[13] = ATP at Km, read-out: IC50 (nmol/L) CDK1/cyclin B1

T3 sequence (P50613 whole entry): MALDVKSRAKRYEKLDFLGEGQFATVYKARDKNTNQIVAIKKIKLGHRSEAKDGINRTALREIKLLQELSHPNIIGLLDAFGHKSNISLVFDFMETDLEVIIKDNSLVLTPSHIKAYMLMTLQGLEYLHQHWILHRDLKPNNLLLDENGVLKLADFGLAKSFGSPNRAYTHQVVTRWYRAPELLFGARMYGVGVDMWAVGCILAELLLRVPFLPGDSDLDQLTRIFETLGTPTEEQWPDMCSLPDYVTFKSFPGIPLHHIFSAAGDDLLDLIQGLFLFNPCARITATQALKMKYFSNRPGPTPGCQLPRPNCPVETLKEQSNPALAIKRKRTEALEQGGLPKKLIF
T3 sequence (P51946 whole entry partner): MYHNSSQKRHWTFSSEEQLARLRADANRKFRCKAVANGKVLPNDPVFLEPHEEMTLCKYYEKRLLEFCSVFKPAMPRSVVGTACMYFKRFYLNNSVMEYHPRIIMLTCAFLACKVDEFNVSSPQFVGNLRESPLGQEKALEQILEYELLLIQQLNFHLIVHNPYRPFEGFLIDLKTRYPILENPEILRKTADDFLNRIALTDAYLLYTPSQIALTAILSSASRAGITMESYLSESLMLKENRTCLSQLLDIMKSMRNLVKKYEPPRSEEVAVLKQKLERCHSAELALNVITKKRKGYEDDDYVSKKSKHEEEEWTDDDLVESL
T3 sequence (P51948 whole entry partner): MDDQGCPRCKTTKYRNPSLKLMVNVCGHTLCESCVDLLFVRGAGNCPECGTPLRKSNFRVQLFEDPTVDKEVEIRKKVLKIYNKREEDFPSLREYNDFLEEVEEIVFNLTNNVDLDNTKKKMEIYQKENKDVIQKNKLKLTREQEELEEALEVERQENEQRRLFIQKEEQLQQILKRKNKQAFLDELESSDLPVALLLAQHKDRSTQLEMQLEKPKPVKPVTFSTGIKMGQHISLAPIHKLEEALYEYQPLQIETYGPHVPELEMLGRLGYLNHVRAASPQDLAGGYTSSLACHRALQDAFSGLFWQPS
T5 sequence (P50750 whole entry): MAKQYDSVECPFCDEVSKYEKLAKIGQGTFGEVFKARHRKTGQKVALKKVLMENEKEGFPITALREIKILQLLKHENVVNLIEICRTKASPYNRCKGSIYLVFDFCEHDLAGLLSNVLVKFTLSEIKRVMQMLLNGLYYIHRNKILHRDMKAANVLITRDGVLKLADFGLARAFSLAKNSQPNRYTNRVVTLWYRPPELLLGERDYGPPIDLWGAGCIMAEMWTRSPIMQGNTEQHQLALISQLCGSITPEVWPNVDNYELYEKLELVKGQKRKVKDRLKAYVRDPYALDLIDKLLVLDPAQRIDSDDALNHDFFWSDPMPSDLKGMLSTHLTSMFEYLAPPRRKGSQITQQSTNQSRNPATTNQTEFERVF
T5 sequence (O60563 whole entry partner): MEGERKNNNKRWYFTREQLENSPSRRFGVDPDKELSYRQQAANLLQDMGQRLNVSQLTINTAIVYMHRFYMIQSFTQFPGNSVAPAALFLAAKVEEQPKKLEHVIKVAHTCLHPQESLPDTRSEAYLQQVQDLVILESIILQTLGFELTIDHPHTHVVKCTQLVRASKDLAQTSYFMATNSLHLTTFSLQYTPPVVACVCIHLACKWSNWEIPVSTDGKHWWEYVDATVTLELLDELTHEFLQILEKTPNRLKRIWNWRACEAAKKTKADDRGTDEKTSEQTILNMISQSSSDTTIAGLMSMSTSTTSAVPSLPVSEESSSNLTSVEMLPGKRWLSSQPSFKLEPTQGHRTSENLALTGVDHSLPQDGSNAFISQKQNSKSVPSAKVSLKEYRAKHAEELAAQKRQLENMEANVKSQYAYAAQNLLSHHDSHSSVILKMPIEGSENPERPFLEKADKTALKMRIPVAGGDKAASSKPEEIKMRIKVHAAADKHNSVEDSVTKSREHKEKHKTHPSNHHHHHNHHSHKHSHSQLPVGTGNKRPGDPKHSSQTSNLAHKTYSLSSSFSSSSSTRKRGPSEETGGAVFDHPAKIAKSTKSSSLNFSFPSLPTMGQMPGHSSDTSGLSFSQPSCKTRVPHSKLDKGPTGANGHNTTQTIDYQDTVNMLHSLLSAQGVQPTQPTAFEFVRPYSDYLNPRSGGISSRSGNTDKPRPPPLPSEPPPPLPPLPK
T9 sequence (Q00535 whole entry): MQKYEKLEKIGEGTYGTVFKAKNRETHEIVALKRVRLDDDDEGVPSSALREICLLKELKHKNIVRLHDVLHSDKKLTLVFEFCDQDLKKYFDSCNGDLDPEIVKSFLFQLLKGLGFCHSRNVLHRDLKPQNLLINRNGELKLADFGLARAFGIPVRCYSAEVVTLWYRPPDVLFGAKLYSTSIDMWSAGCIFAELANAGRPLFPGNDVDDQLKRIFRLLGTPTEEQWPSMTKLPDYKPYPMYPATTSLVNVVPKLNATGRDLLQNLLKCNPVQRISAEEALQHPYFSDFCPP
T9 sequence (Q15078 2-307 partner limits assumed): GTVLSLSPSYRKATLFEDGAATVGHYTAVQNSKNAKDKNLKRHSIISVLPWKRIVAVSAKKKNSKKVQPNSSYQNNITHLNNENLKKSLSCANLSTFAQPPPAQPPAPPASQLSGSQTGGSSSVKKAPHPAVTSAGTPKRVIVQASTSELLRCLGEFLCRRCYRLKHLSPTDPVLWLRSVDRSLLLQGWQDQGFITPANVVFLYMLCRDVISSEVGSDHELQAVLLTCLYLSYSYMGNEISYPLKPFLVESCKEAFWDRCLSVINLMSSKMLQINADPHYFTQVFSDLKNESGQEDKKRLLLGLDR
T6 sequence (Q00534 whole entry): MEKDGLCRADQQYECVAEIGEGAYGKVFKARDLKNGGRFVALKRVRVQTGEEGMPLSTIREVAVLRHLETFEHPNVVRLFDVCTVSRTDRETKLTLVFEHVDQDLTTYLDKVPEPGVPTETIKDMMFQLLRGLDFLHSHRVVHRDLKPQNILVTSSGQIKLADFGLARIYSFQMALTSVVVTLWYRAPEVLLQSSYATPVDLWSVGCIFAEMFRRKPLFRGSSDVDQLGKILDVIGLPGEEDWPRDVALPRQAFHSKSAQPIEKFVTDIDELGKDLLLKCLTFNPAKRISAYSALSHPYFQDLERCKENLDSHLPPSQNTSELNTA
T6 sequence (P30281 whole entry partner): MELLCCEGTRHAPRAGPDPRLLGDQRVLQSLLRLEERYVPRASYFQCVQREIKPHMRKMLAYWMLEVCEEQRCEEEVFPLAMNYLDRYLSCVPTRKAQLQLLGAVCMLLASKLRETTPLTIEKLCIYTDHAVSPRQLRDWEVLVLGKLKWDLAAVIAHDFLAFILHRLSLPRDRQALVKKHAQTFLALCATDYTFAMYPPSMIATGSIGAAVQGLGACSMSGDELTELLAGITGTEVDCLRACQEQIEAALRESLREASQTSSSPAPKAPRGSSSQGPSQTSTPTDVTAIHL
T7 sequence (P06493 whole entry): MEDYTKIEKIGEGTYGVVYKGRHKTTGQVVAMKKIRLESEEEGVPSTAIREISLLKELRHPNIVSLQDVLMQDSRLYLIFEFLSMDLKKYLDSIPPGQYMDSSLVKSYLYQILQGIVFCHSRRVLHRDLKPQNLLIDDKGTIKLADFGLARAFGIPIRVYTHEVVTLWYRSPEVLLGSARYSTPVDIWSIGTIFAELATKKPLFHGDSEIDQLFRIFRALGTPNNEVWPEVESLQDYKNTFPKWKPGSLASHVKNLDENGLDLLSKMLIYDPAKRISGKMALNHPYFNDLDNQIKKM
T7 sequence (P14635 whole entry partner): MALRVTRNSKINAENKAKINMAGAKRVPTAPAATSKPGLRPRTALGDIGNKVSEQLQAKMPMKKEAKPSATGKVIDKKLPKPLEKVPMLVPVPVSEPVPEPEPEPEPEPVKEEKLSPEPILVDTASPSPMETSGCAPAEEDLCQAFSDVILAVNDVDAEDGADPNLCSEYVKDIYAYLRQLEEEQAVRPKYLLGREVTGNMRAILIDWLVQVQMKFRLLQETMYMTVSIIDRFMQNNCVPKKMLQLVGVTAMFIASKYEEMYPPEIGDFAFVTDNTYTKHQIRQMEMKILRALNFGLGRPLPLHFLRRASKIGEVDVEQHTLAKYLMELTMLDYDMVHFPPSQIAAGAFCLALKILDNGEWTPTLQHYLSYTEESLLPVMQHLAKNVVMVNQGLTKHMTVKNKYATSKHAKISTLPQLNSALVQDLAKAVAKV
T2 sequence (Q00535 whole entry): as the sequence (Q00535 whole entry) above
T2 sequence (Q15078 99-307 partner limits assumed): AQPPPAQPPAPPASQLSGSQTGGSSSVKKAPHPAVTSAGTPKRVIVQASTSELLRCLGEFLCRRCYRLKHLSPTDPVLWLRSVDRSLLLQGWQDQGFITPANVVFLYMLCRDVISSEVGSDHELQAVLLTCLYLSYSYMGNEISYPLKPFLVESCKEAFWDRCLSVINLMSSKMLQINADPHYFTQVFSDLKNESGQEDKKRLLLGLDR

half-life at 1 µmol/L [1, 8] | half-life at 1 µmol/L [1, 9] | half-life at 1 µmol/L [1, 10] | half-life at 1 µmol/L [1, 11] | IC50 (CDK5/p25) | IC50 (CDK7) | IC50 (CDK6/cyclin D3; [12]) | IC50 (CDK1/cyclin B1 [3]; [13]) | IC50 (CDK2/cyclin A2) | IC50 (CDK5) | IC50 (CDK2/cyclin E1) | Structure (SMILES) | other results
< 10 min | < 10 min | < 10 min | < 10 min | 0.4 nmol/L | 33.5 nmol/L | 8.6 nmol/L | 1.2 nmol/L | 0.1 nmol/L | 0.5 nmol/L | 0.1 nmol/L | NS(=O)(=O)c1ccc(Nc2ncc3cc4n(c3n2)C2(CCCCC2)CN=C4)cc1 [Compound B] | IC50 (CDK4/cyclin D1): 3.6 nmol/L; IC50 (CDK3/cyclin E1): 0.5 nmol/L; IC50 (CDK9/cyclin T1 [2]; ATP at Km, read-out: IC50 (nmol/L) CDK9/cyclin T1): 1.6 nmol/L
15.3 min | < 10 min | < 10 min | 23.4 min | – | 796 nmol/L | 214 nmol/L | 41 nmol/L | 4 nmol/L | 50.2 nmol/L | 5 nmol/L | C[C@@H]1NC(=O)C2(CCCCC2)n2c1cc1cnc(Nc3ccc(S(N)(=O)=O)cc3)nc12 [Compound C] | –
– | – | – | – | – | – | – | – | – | – | – | CC(C)N1CCN(c2ccc(Nc3ncc4cc5n(c4n3)C3(CCCCC3)CNC5=O)nc2)CC1 [Lerociclib, lerociclib, reference compound] | IC50 [4]: 1420 nM
– | – | – | – | – | – | – | – | – | – | – | COCc1cc(C(=O)Nc2cc([C@H]3CC[C@@H](OC(=O)NC(C)C)C3)[nH]n2)n(C)n1 [PF-07104091, reference compound] | IC50 (MCF7 Parent; Parent in DMSO): 562 nM; IC50 (MCF7 Parent; Parent+Abema: 500 nM abemaciclib concurrently): 232 nM; IC50 (MCF7 Abema-resistant): 41.8 nM; IC50 (MCF7 Fulv-resistant): 508 nM; IC50 [5]: 125 nM; IC50 (CDK9/cyclin T1 [6]): > 10000 nM; IC50 (CDK1/cyclin B1 [7]): 1180 nM; IC50 (CDK9/cyclin T1 [2]; Supp Fig S1C, read-out: IC50 (nM) CDK9/cyclin T1): 363 nmol/L; IC50 (CDK6/cyclin D3; Supp Fig S1C, read-out: IC50 (nM) CDK6/cyclin D3): > 1000 nmol/L; IC50 (CDK1/cyclin B1 [3]; Supp Fig S1C, read-out: IC50 (nM) CDK1/B1): 65.8 nmol/L
> 60 min | 28 min | > 60 min | 5 min | 1710 nmol/L | 4640 nmol/L | – | – | – | 1240 nmol/L | – | CN1CCN(c2ccc(Nc3ncc4cc5n(c4n3)C3(CCCCC3)CNC5=O)nc2)CC1 [Trilaciclib, reference compound] | half-life at 1 µmol/L ([1]; both sexes, human, liver microsomes, longer than the duration of the experiment, read-out: calculated half-life (in parenthesis)): 66 min; half-life at 1 µmol/L ([1]; male, Sprague-Dawley, rat, liver microsomes, longer than the duration of the experiment, read-out: calculated half-life (in parenthesis)): 73 min
– | – | – | – | – | – | – | – | – | – | – | CN(C)C(=O)c1cc2cnc(Nc3ccc(N4CCNCC4)cn3)nc2n1C1CCCC1 [ribociclib, reference compound] | tumor growth (ST4316B PDX): slowed tumor growth modestly
